Results published in PMC9133015 (Nature Communications, 2022).
“And” between values parts separate entries of the source, which are not always exact repeats. Equal entries are not always repeated.

Assays:
PC-3 xenograft = test: In vivo antitumor activity, PC-3 xenograft mouse model; design: species or system BALB/c nude mice; conditions: Palbociclib group; for tumor volume (Figure S10a): in mm³ (unit assumed)
RWPE-1 cells = test: Anti-proliferation activity assay (CCK8, 72 h); assay type: cell-based; conditions: RWPE1; for Relative proliferation rate (%) / optical density: replicates
22Rv1 cells [1] = test: Cell growth assay (5-day course); assay type: cell-based, human; conditions: 22Rv1, 0.5 µM
PC-3 cells [2] = test: Cell growth assay (5-day course); assay type: cell-based, human; conditions: PC-3, 4 µM; for Relative proliferation rate / optical density: replicates
DU145 cells [3] = test: Cell growth assay (5-day course); assay type: cell-based, human; conditions: DU145, 2 μM
22Rv1 cells [4] = test: Colony formation assay; assay type: cell-based, human; conditions: 22Rv1, 0.5 μM, replicates
DU145 cells [5] = test: Colony formation assay; assay type: cell-based, human; conditions: DU145, 2 μM, replicates
PC-3 cells [6] = test: Colony formation assay; assay type: cell-based, human; conditions: 2 µM, replicates

`CC(=O)c1c(C)c2cnc(Nc3ccc(N4CCNCC4)cn3)nc2n(C2CCCC2)c1=O` [palbociclib] was tested, and the “body weight (Figure S10b)” value (PC-3 xenograft; day 1, individual mice, in g (unit assumed)) was 20.3 and 18.7 and 20.4 and 19.9 and 20.5 and 20.1 and 19.3 and 19.6, the “tumor volume (Figure S10a)” value (PC-3 xenograft; day 1, individual mice) was 71.756 and 85.3384 and 76.4514 and 97.6139 and 96.2115 and 81.8398 and 86.3514 and 80.8996 and the “body weight (Figure S10b)” value (PC-3 xenograft; day 3, individual mice) was 20.6 (2×) and 19.9 (2×) and 20.3 (2×) and 20.4 and 19.5. The “tumor volume (Figure S10a)” value (PC-3 xenograft; day 3, individual mice) was 100.82 and 125.949 and 118.537 and 171.398 and 182.064 and 137.067 and 104.176 and 152.65, the “body weight (Figure S10b)” value (PC-3 xenograft; day 5, individual mice, in g (unit assumed)) was 20.8 and 20.1 and 20.9 and 20.5 and 20.7 and 20.6 and 19.4 and 20.3 and the “tumor volume (Figure S10a)” value (PC-3 xenograft; day 5, individual mice) was 153.25 and 178.1 and 171.863 and 263.764 and 233.187 and 184.767 and 136.023 and 212. For the same compound, the “body weight (Figure S10b)” value (PC-3 xenograft; day 7, individual mice) was 21.1 (2×) and 20.4 (3×) and 20.6 and 20.9 and 19.6, the “tumor volume (Figure S10a)” value (PC-3 xenograft; day 7, individual mice) was 216.949 and 236.787 and 227.898 and 326.971 and 317.909 and 235.081 and 192.895 and 301.873 and the “body weight (Figure S10b)” value (PC-3 xenograft; day 9, individual mice) was 21.3 and 20.2 and 21.1 and 20.9 (2×) and 21.2 and 20.1 and 19.8. For the same compound, the “tumor volume (Figure S10a)” value (PC-3 xenograft; day 9, individual mice) was 326.253 and 371.781 and 295.973 and 465.763 and 471.469 and 352.991 and 279.054 and 463.034, the “body weight (Figure S10b)” value (PC-3 xenograft; day 11, individual mice) was 21 and 20.5 and 21.4 and 21.2 and 21.5 (2×) and 20.3 and 20.1 and the “tumor volume (Figure S10a)” value (PC-3 xenograft; day 11, individual mice) was 372.859 and 454.695 and 359.079 and 528.072 and 529.867 and 450.398 and 332.776 and 546.405. For the same compound, the “body weight (Figure S10b)” value (PC-3 xenograft; day 13, individual mice, in g (unit assumed)) was 21.3 and 20.8 and 21.6 and 21.5 and 22 and 20.7 and 20.4 and 21.8, the “tumor volume (Figure S10a)” value (PC-3 xenograft; day 13, individual mice) was 420.513 and 508.608 and 384.455 and 605.279 and 564.127 and 444.148 and 375.063 and 606.531 and the “body weight (Figure S10b)” value (PC-3 xenograft; day 15, individual mice) was 21.1 and 20.8 and 21.3 and 21.6 and 22.2 (2×) and 20.3 and 20.7. The “tumor volume (Figure S10a)” value (PC-3 xenograft; day 15, individual mice) was 457.463 and 542.009 and 415.332 and 636.893 and 637.934 and 467.888 and 410.165 and 646.315, the “body weight (Figure S10b)” value (PC-3 xenograft; day 17, individual mice, in g (unit assumed)) was 21.5 and 21.1 and 21.7 and 22 and 22.3 and 20.6 and 21 and 22.4 and the “tumor volume (Figure S10a)” value (PC-3 xenograft; day 17, individual mice) was 524.733 and 575.217 and 457.759 and 764.115 and 735.045 and 549.485 and 474.267 and 700.215. The “body weight (Figure S10b)” value (PC-3 xenograft; day 19, individual mice, in g (unit assumed)) was 21.8 and 21.4 and 22 and 22.2 and 22.5 and 20.9 and 21.1 and 22.7, the “tumor volume (Figure S10a)” value (PC-3 xenograft; day 19, individual mice) was 535.372 and 736.543 and 494.255 and 792.24 and 789.87 and 530.997 and 470.291 and 757.507 and the “body weight (Figure S10b)” value (PC-3 xenograft; day 21, individual mice) was 22.2 (2×) and 21.8 and 22.6 and 23 and 21.2 and 21.5 and 22.9. The “tumor volume (Figure S10a)” value (PC-3 xenograft; day 21, individual mice) was 606.966 and 810.199 and 550.471 and 875.109 and 842.441 and 533.366 and 544.597 and 821.393, the “body weight (Figure S10b)” value (PC-3 xenograft; day 23, individual mice, in g (unit assumed)) was 22.4 and 21.9 and 22.5 and 22.9 and 23.5 and 21.6 and 21.7 and 23.3 and the “tumor volume (Figure S10a)” value (PC-3 xenograft; day 23, individual mice) was 636.352 and 826.869 and 562.019 and 936.064 and 895.067 and 564.812 and 586.01 and 861.421. The “body weight (Figure S10b)” value (PC-3 xenograft; day 25, individual mice, in g (unit assumed)) was 22.7 and 22.2 and 22.8 and 23.3, the “tumor volume (Figure S10a)” value (PC-3 xenograft; day 25, individual mice) was 672.525 and 833.997 and 554.501 and 942.419 and the “tumor weight (Figure S10c)” value (PC-3 xenograft; individual mice, in g (unit assumed)) was 0.86 and 0.74 and 1.05 and 0.97 and 0.73 and 0.85 and 0.69 and 0.92. The “Relative proliferation rate (%) mean” value (RWPE-1 cells; 0.078 uM) was 4.3459%, the “Relative proliferation rate (%)” value (RWPE-1 cells; 0.078 uM) was 2.8348% and 5.899% and 4.304% and the optical density (RWPE-1 cells; 0.078 uM) was 0.994 and 1.005 and 1.045. The “Relative proliferation rate (%) mean” value (RWPE-1 cells; 0.3125 uM) was 4.485%, the “Relative proliferation rate (%)” value (RWPE-1 cells; 0.3125 uM) was 1.76% and 7.21% and 4.487% and the optical density (RWPE-1 cells; 0.3125 uM) was 1.005 and 0.991 and 1.043. The “Relative proliferation rate (%) mean” value (RWPE-1 cells; 1.25 uM) was 11.7464%, the “Relative proliferation rate (%)” value (RWPE-1 cells; 1.25 uM) was 7.038% and 16.4794% and 11.7216% and the optical density (RWPE-1 cells; 1.25 uM) was 0.951 and 0.892 and 0.964. The “Relative proliferation rate (%) mean” value (RWPE-1 cells; 5 uM) was 24.554%, the “Relative proliferation rate (%)” value (RWPE-1 cells; 5 uM) was 19.1593% and 29.8689% and 24.6337% and the optical density (RWPE-1 cells; 5 uM) was 0.827 and 0.749 and 0.823. The “Relative proliferation rate (%) mean” value (RWPE-1 cells; 20 uM) was 55.5924%, the “Relative proliferation rate (%)” value (RWPE-1 cells; 20 uM) was 50.0489% and 61.1423% and 55.5861% and the optical density (RWPE-1 cells; 20 uM) was 0.511 and 0.415 and 0.485. The “Relative proliferation rate (%) mean” value (RWPE-1 cells; 80 uM) was 75.0851%, the “Relative proliferation rate (%)” value (RWPE-1 cells; 80 uM) was 68.3284% and 81.8352% and 75.0916% and the optical density (RWPE-1 cells; 80 uM) was 0.324 and 0.194 and 0.272. For the same compound, the “Relative proliferation rate mean” value (22Rv1 cells [1]; day 1) was 1.1416, the “Relative proliferation rate mean” value (22Rv1 cells [1]; day 2) was 1.363 and the “Relative proliferation rate mean” value (22Rv1 cells [1]; day 3) was 1.755. The “Relative proliferation rate mean” value (22Rv1 cells [1]; day 4) was 2.003, the “Relative proliferation rate mean” value (PC-3 cells [2]; day 0) was 1 and the Relative proliferation rate (PC-3 cells [2]; day 0) was 1. For the same compound, the optical density (PC-3 cells [2]; day 0) was 0.261, the “Relative proliferation rate mean” value (PC-3 cells [2]; day 1) was 1.157 and the Relative proliferation rate (PC-3 cells [2]; day 1) was 1.143 and 1.182 and 1.147. The optical density (PC-3 cells [2]; day 1) was 0.298 and 0.308 and 0.299, the “Relative proliferation rate mean” value (PC-3 cells [2]; day 2) was 1.563 and the Relative proliferation rate (PC-3 cells [2]; day 2) was 1.569 and 1.565 and 1.554. The optical density (PC-3 cells [2]; day 2) was 0.409 and 0.408 and 0.405, the “Relative proliferation rate mean” value (PC-3 cells [2]; day 3) was 2.215 and the Relative proliferation rate (PC-3 cells [2]; day 3) was 2.206 and 2.244 and 2.194. For the same compound, the optical density (PC-3 cells [2]; day 3) was 0.575 and 0.585 and 0.572, the “Relative proliferation rate mean” value (PC-3 cells [2]; day 4) was 4.39 and the Relative proliferation rate (PC-3 cells [2]; day 4) was 4.419 and 4.354 and 4.396. The optical density (PC-3 cells [2]; day 4) was 1.152 and 1.135 and 1.146, the “Relative proliferation rate mean” value (DU145 cells [3]; day 1) was 1.596 and the “Relative proliferation rate mean” value (DU145 cells [3]; day 2) was 2.367. For the same compound, the “Relative proliferation rate mean” value (DU145 cells [3]; day 3) was 5.211, the “Relative proliferation rate mean” value (DU145 cells [3]; day 4) was 6.975 and the “Colony formation (cell number)” value (22Rv1 cells [4]) was 250 cell number and 274 cell number and 246 cell number. The “Colony formation (cell number)” value (DU145 cells [5]) was 150 cell number and 158 cell number and 148 cell number and the “Colony formation (cell number)” value (PC-3 cells [6]) was 78 cell number and 83 cell number and 81 cell number.
